The term T/C denotes the result in the treated group divided by that in the control group, in per cent.

Results on 18 compounds are retold here after PubChem BioAssay AID180 (DTP/NCI, 2004).

Where “and” joins values, the source holds several entries; their conditions need not be identical. Equal entries are not always repeated.

The experiment concerns BDF1 mice, Adenocarcinoma 755 s.c., tumor weight T/C. As to the kind of experiment: NCI In Vivo Anticancer Drug Screen. Data for tumor model Adenocarcinoma 755 (subcutaneous) in B6D2F1 (BDF1) mice. Conditions: endpoint: mean tumor weight, higher = larger tumour. The method in brief: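 Values express treated (T) relative to vehicle-dosed control (C) animals, based on survival or tumour size measured after compound treatment of mice bearing a transplanted tumour.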

Setting [1] is: dose: 2.5 mg/kg/injection, schedule: Q01DX011 (ip), vehicle: carboxymethylcellulose (CMC).
Where [2] appears, read: dose: 125.0 mg/kg/injection, schedule: Q01DX011 (ip), vehicle: methylcellulose (MC).
The mark [3] stands for this setting: dose: 250.0 mg/kg/injection, schedule: Q01DX011 (ip), vehicle: methylcellulose (MC).
Setting [4] is: dose: 5.0 mg/kg/injection, schedule: Q01DX011 (ip), vehicle: carboxymethylcellulose (CMC).
Where [5] appears, read: dose: 10.0 mg/kg/injection, schedule: Q01DX011 (ip), vehicle: carboxymethylcellulose (CMC).
Setting [6] is: dose: 20.0 mg/kg/injection, schedule: Q01DX011 (ip), vehicle: carboxymethylcellulose (CMC).
Where [7] appears, read: dose: 40.0 mg/kg/injection, schedule: Q01DX011 (ip), vehicle: carboxymethylcellulose (CMC).
Where [8] appears, read: dose: 30.0 mg/kg/injection, schedule: Q01DX011 (ip), vehicle: saline.
Where [9] appears, read: dose: 20.0 mg/kg/injection, schedule: Q01DX011 (ip), vehicle: methylcellulose (MC).
[10] abbreviates: dose: 12.5 mg/kg/injection, schedule: Q01DX011 (ip), vehicle: saline.
The mark [11] stands for this setting: dose: 25.0 mg/kg/injection, schedule: Q01DX011 (ip), vehicle: saline.

For the compound `COc1ccc(C[C@H](N)C(=O)NC2C(CO)OC(n3cnc4c(N(C)C)ncnc43)C2O)cc1` (stereo partly drawn), the T/C reads like this: (dose: 9.94 mg/kg/injection, schedule: Q01DX011 (ip), vehicle: carboxymethylcellulose (CMC)) 104 % of control; (dose: 13.25 mg/kg/injection, schedule: Q01DX011 (ip), vehicle: carboxymethylcellulose (CMC)) 119 % of control; (dose: 17.06 mg/kg/injection, schedule: Q01DX011 (ip), vehicle: carboxymethylcellulose (CMC)) 73 % of control; (dose: 19.88 mg/kg/injection, schedule: Q01DX011 (ip), vehicle: carboxymethylcellulose (CMC)) 174 % of control; (dose: 23.0 mg/kg/injection, schedule: Q01DX011 (ip), vehicle: carboxymethylcellulose (CMC)) 67 % of control; (dose: 26.5 mg/kg/injection, schedule: Q01DX011 (ip), vehicle: carboxymethylcellulose (CMC)) 70 % of control. Further, the T/C is 47 % of control and 48 % of control (dose: 31.8 mg/kg/injection, schedule: Q01DX011 (ip), vehicle: carboxymethylcellulose (CMC)); 57 % of control (dose: 34.13 mg/kg/injection, schedule: Q01DX011 (ip), vehicle: carboxymethylcellulose (CMC)); 70 % of control (dose: 45.0 mg/kg/injection, schedule: Q01DX011 (ip), vehicle: carboxymethylcellulose (CMC)); 50 % of control (dose: 68.25 mg/kg/injection, schedule: Q01DX011 (ip), vehicle: carboxymethylcellulose (CMC)); 14 % of control (dose: 79.5 mg/kg/injection, schedule: Q01DX011 (ip), vehicle: carboxymethylcellulose (CMC)); 51 % of control (dose: 90.0 mg/kg/injection, schedule: Q01DX011 (ip), vehicle: carboxymethylcellulose (CMC)).

As for `C1CN1P1(N2CC2)=NP(N2CC2)(N2CC2)=NP(N2CC2)(N2CC2)=N1`, the T/C is 60 % of control (dose: 3.0 mg/kg/injection, schedule: Q01DX011 (ip), vehicle: carboxymethylcellulose (CMC)); 43 % of control (dose: 6.0 mg/kg/injection, schedule: Q01DX011 (ip), vehicle: carboxymethylcellulose (CMC)); 17 % of control and 21 % of control (dose: 6.0 mg/kg/injection, schedule: Q01DX011 (ip), vehicle: methylcellulose (MC)); 9 % of control (dose: 12.0 mg/kg/injection, schedule: Q01DX011 (ip), vehicle: carboxymethylcellulose (CMC)).

In the case of `CCSc1ncnc2nc[nH]c12`, the T/C was 40 % of control under setting [1] and 1 % of control (dose: 100.0 mg/kg/injection, schedule: Q01DX011 (ip), vehicle: carboxymethylcellulose (CMC)).

Regarding `Cc1cnc(SCc2ccc(Cl)cc2Cl)nc1SCc1ccc(Cl)cc1Cl`, the T/C was 114 % of control (dose: 31.0 mg/kg/injection, schedule: Q01DX011 (ip), vehicle: methylcellulose (MC)); 100 % of control under setting [2]; 117 % of control under setting [3].

With `CC1CN1P(=O)(N1CC2CCC(CC2)C1)N1CC1C` (stereo not drawn), the T/C runs as follows: (dose: 7.0 mg/kg/injection, schedule: Q01DX011 (ip), vehicle: saline) 109 % of control; (dose: 14.0 mg/kg/injection, schedule: Q01DX011 (ip), vehicle: saline) 87 % of control; (dose: 28.0 mg/kg/injection, schedule: Q01DX011 (ip), vehicle: saline) 87 % of control.

As to `O=C(CCBr)NCCNC(=O)CCBr`, the T/C runs as follows: (dose: 50.0 mg/kg/injection, schedule: Q01DX011 (ip), vehicle: methylcellulose (MC)) 15 % of control; (dose: 100.0 mg/kg/injection, schedule: Q01DX011 (ip), vehicle: methylcellulose (MC)) 3 % of control.

Take `O=CCC(O)C(O)C(O)CO` (stereo not drawn): the T/C (dose: 125.0 mg/kg/injection, schedule: Q01DX011 (ip), vehicle: carboxymethylcellulose (CMC)) was 106 % of control and 122 % of control.

Take `Cn1cc(F)c(=O)[nH]c1=O`: the T/C is 86 % of control under setting [4], 117 % of control under setting [5], 87 % of control under setting [6] and 99 % of control under setting [7].

As for `Cn1c(N)nc2c(ncn2C2OC(CO)C(O)C2O)c1=O` (stereo not drawn), the T/C is 101 % of control under setting [8]; 94 % of control (dose: 60.0 mg/kg/injection, schedule: Q01DX011 (ip), vehicle: saline); 116 % of control (dose: 120.0 mg/kg/injection, schedule: Q01DX011 (ip), vehicle: saline).

Consider `CCC(C)Cn1cnc2c(SCc3ccccc3F)nc(N)nc21` (stereo not drawn), for which the T/C under setting [9] was 64 % of control; the T/C (dose: 65.0 mg/kg/injection, schedule: Q01DX011 (ip), vehicle: methylcellulose (MC)) is 76 % of control; the T/C (dose: 200.0 mg/kg/injection, schedule: Q01DX011 (ip), vehicle: methylcellulose (MC)) is 30 % of control.

Regarding `C[C@@H]1CC2=CC(=O)C=C[C@]2(C)[C@H]2CC[C@@]3(C)[C@@H](CC[C@]3(C)O)[C@H]12`, the T/C is 16 % of control (dose: 400.0 mg/kg/injection, schedule: Q01DX011 (sc), vehicle: steriod suspending solution) and 33 % of control (dose: 800.0 mg/kg/injection, schedule: Q01DX011 (sc), vehicle: steriod suspending solution).

Consider `NCC(N)=O`, for which the T/C is 86 % of control (dose: 100.0 mg/kg/injection, schedule: Q01DX011 (ip), vehicle: other); 79 % of control (dose: 200.0 mg/kg/injection, schedule: Q01DX011 (ip), vehicle: other); 56 % of control (dose: 400.0 mg/kg/injection, schedule: Q01DX011 (ip), vehicle: other).

Turning to `O=CNC(Cc1ccc(N(CCCl)CCCl)cc1)C(=O)O` (stereo not drawn), the T/C was 94 % of control (dose: 1.25 mg/kg/injection, schedule: Q01DX011 (ip), vehicle: carboxymethylcellulose (CMC)); 87 % of control (dose: 1.25 mg/kg/injection, schedule: Q01DX011 (ip), vehicle: saline); 54 % of control under setting [1]; 91 % of control (dose: 2.5 mg/kg/injection, schedule: Q01DX011 (ip), vehicle: saline); 31 % of control and 50 % of control under setting [4]; 71 % of control (dose: 5.0 mg/kg/injection, schedule: Q01DX011 (ip), vehicle: saline). Moreover, the T/C is 23 % of control under setting [5]; 34 % of control (dose: 10.0 mg/kg/injection, schedule: Q01DX011 (ip), vehicle: methylcellulose (MC)); 66 % of control (dose: 10.0 mg/kg/injection, schedule: Q01DX011 (ip), vehicle: saline); 34 % of control under setting [9]; 2 % of control under setting [7]; 23 % of control (dose: 40.0 mg/kg/injection, schedule: Q01DX011 (ip), vehicle: methylcellulose (MC)). Besides, the T/C (dose: 80.0 mg/kg/injection, schedule: Q01DX011 (ip), vehicle: methylcellulose (MC)) was 4 % of control.

`CCCN(C)/N=N/c1nc[nH]c1C(N)=O`: the T/C reads like this: under setting [4], 91 % of control; (dose: 7.5 mg/kg/injection, schedule: Q01DX011 (ip), vehicle: carboxymethylcellulose (CMC)) 87 % of control; under setting [5], 51 % of control; (dose: 15.0 mg/kg/injection, schedule: Q01DX011 (ip), vehicle: carboxymethylcellulose (CMC)) 47 % of control; under setting [6], 39 % of control; (dose: 30.0 mg/kg/injection, schedule: Q01DX011 (ip), vehicle: carboxymethylcellulose (CMC)) 30 % of control. The T/C under setting [7] is 37 % of control.

For the compound `CC(C)n1cc2c(N)ncnc2n1`, the T/C runs as follows: (dose: 12.5 mg/kg/injection, schedule: Q01DX011 (ip), vehicle: methylcellulose (MC)) 55 % of control; under setting [10], 74 % of control; (dose: 25.0 mg/kg/injection, schedule: Q01DX011 (ip), vehicle: methylcellulose (MC)) 18 % of control; under setting [11], 14 % of control.

As for `c1nc([N+]23CCC(CC2)CC3)c2[nH]cnc2n1`, the T/C by setting is: under setting [10], 101 % of control; (dose: 20.0 mg/kg/injection, schedule: Q01DX011 (ip), vehicle: saline) 98 % of control; under setting [11], 56 % of control; under setting [8], 50 % of control; (dose: 40.0 mg/kg/injection, schedule: Q01DX011 (ip), vehicle: saline) 41 % of control; (dose: 50.0 mg/kg/injection, schedule: Q01DX011 (ip), vehicle: saline) 19 % of control and 29 % of control.

Regarding `[O-][N+](CCO)(CCO)c1ncnc2nc[nH]c12`, the T/C is, setting by setting: under setting [11], 121 % of control; (dose: 75.0 mg/kg/injection, schedule: Q01DX011 (ip), vehicle: saline) 72 % of control; (dose: 225.0 mg/kg/injection, schedule: Q01DX011 (ip), vehicle: saline) 82 % of control.

For the compound `Nc1nc(SCc2ccccc2)c2ncn(Cc3ccccc3)c2n1`, the T/C is 28 % of control (dose: 62.5 mg/kg/injection, schedule: Q01DX011 (ip), vehicle: methylcellulose (MC)); 14 % of control under setting [2]; 7 % of control under setting [3].
